The target in this assay is Receptor tyrosine-protein kinase erbB-2 (Homo sapiens, UniProt P04626). Briefly: Inhibition of recombinant N-terminal His6-tagged HER2 cytoplasmic domain (676 to 1255 residues) (unknown origin) expressed in baculovirus infected Sf9 insect cells assessed as reduction in autophosphorylation preincubated for 15 mins followed by ATP addition and measured after 1 hr by ELISA. Background: An ELISA detects its analyte on a solid surface through an enzyme-linked reagent.

pIC50: −log10 of the molar value.

For orientation: pIC50 means the negative decadic logarithm of the IC50, by convention in mol/L.

Receptor tyrosine-protein kinase erbB-2, sequence (P04626 whole entry, the tested form may be a part): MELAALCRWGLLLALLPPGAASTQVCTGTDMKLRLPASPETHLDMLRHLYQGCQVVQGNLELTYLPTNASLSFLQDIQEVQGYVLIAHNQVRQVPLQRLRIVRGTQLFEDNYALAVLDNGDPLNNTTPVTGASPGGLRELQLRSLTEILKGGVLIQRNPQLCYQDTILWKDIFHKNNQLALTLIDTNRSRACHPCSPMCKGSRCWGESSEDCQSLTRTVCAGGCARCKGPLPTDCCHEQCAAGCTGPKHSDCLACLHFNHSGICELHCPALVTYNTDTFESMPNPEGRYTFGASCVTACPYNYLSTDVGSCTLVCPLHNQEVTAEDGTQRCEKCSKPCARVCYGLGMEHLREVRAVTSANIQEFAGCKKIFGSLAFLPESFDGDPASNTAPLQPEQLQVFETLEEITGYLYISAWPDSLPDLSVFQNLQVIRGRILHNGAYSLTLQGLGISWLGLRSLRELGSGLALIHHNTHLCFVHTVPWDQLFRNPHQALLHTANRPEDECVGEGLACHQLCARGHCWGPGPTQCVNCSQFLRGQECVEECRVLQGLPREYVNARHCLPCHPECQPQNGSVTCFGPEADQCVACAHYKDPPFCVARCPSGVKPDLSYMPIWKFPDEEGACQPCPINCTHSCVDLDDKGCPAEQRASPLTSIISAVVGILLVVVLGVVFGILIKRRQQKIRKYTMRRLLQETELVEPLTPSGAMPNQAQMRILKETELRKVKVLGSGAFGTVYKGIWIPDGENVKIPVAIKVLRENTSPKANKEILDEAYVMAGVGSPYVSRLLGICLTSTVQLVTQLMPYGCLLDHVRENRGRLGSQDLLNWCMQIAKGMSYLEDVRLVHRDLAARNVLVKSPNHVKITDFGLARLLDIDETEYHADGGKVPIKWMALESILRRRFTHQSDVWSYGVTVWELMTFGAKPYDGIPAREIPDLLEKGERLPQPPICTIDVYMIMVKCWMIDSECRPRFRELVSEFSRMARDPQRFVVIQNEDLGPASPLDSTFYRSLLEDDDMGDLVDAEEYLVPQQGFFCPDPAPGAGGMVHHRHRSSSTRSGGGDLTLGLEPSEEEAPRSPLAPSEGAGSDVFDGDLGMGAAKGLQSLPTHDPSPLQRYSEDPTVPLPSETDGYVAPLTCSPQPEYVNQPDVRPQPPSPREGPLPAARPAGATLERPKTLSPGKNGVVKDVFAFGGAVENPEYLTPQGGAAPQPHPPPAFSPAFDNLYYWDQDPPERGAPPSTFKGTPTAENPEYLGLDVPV

In the case of `CCOc1cc2ncc(C#N)c(Nc3ccc(F)c(Cl)c3)c2cc1NC(=O)/C=C/CN(C)C` [PELITINIB], the negative logarithm of the IC50 (pIC50) is 5.90.

Values taken from ChEMBL document CHEMBL5661967, “Antitumor activity of HKI-272, an orally active, irreversible inhibitor of the HER-2 tyrosine kinase” (Cancer Res, 2004).
